Results on eight molecules are retold here after US20140005188A1, “PYRIDO[3,4-B]PYRAZINE DERIVATIVES AS SYK INHIBITORS” (GLAXO GROUP LIMITED, priority 2011, published 2014).

One data set deals with T1, SYK (Homo sapiens, UniProt P43405).
T1 construct: The cell pellet was then lysed in ice-cold lysis buffer containing 1% triton-x-100; endogenous in cells; host or cells: Ramos B cells (human Burkitt's lymphoma, clone 296.4C10, ATCC), stimulated with anti-IgM antibody, clarified Triton X-100 lysate
The experiment in a line: biochemical. Particulars: SYK lysate from anti-IgM stimulated Ramos B cells, Y7 Sox peptide 5 μM, ATP 35 μM; read-out: average plC50. Here is the method:
1. Basic SYK Enzyme Activity
3 μl of SYK lysate diluted 16-fold in assay buffer (20 mM TRIS pH 7.4, 0.01% BSA, 0.1% Pluronic F-68) was added to wells containing 0.1 μl of various concentrations of compound or DMSO vehicle (1.7% final) in a Greiner low volume 384 well black plate. […]
i. Preparation of Ramos Cell Lysates
Cells were grown in Corning Cellstacks (6360 cm^2) in 1 litre volume and viability and cell density were monitored daily. Cells were maintained at <1.5×10e6/ml and >92% viability ii. Stimulation of Ramos Cells with Anti-IgM Ab to Produce Syk & Preparation of Lysates Cells were stimulated at 20×10^6 cells/ml using 15 ug/ml (final concentration) anti-IgM antibody. Following harvest (as described above), a total of 4×10^9 cells were resuspended in 180 mls pre-warmed (37° C.) DPBS in a Corning 500 ml centrifuge bottle. 20 mls anti-IgM antibody at 150 ug/ml were added to each 500 ml centrifuge bottle. (working stock made up in DPBS pre-warmed to 37° C.). Cells were incubated for exactly 5 minutes at 37° C. following the addition of anti IgM antibody. Following 5 minutes stimulation, 300 mls ice-cold DPBS were added to each bottle to stop the stimulation (temperature drops to ˜12 deg C.) then cells were centrifuged at 2000 rpm (Sorvall Legend RT+centrifuge—pre-chilled to 4 deg C.). Cells were washed by resuspension in ice-cold DPBS and centrifugation as above. The cell pellet was then lysed in ice-cold lysis buffer containing 1% triton-x-100 at a ratio of 150 ul/1×10^7 cells (i.e. […] lysis buffer). Following the addition of lysis buffer, the cells were pipetted up & down & kept on ice for 15 minutes. The clarified lysate was then obtained by centrifugation (Sorvall Evolution RC (SLA-1500 rotor, ˜20,000 g (˜14,500 rpm), 45 min, 4° C.).
Lysate was aliquoted, snap-frozen on dry-ice & stored at −80° C. prior to assay.

Another data set has as its system B lymphoma (BKS-2). The following applies: murine BKS-2 B lymphoma model; cited from earlier work.
The conditions of data set [1]: cited from earlier work.

Counter-ions that a name gives are not always drawn.

Take `Cn1nccc1-c1cc2nccnc2c(NC[C@@H]2CNCCO2)n1` [Example 92, 7-(1-methyl-1H-pyrazol-5-yl)-N-[(2S)-morpholin-2-ylmethyl]pyrido[3,4-b]pyrazin-5-amine hydrochloride]: the IC50 at SYK is no more than 10 µM. The same measure, in the same setting: as for `Fc1ccc(-c2cc3nccnc3c(NCC3(F)CCCNC3)n2)c(F)c1` (stereo not drawn) [Example 166, 7-(2,4-difluorophenyl)-N-[(3-fluoropiperidin-3-yl)methyl]pyrido[3,4-b]pyrazin-5-amine], the figure is no more than 10 µM. In the case of `CC1CCC(CNc2nc(-c3cnn(C)c3)cc3nccnc23)CN1` (single isomer, unassigned) [Example 176, 7-(1-methyl-1H-pyrazol-4-yl)-N-[(6-methylpiperidin-3-yl)methyl]pyrido[3,4-b]pyrazin-5-amine hydrochloride, single unknown enantiomer], the IC50 on SYK was no more than 10 µM.

`O=C1CN(c2cc3nccnc3c(NC[C@H]3CCCNC3)n2)CCN1` [Example 30, 4-(5-{[(3S)-3-piperidinylmethyl]amino}pyrido[3,4-b]pyrazin-7-yl)-2-piperazinone, hydrochloride]: the IC50 at SYK was no more than 10 µM.

Take `COc1cc(/C=C/C(=O)CC(=O)/C=C/c2ccc(O)c(OC)c2)ccc1O` [curcumin]: the “tumour burden as measured by the total splenocyte number” value with B lymphoma (BKS-2) is reported as “significant reduction”. Regarding `COc1cncc(-c2cc3nccnc3c(NCC3(F)CCCNC3)n2)c1` (stereo not drawn) [Example 128, N-[(3-fluoropiperidin-3-yl)methyl]-7-(5-methoxypyridin-3-yl)pyrido[3,4-b]pyrazin-5-amine], on SYK, the IC50 is no more than 10 µM. The same measure, in the same setting: as for `Cc1noc(C)c1-c1cc2nccnc2c(NCC2(F)CCCNC2)n1` (stereo not drawn) [Example 157, 7-(dimethyl-1,2-oxazol-4-yl)-N-[(3-fluoropiperidin-3-yl)methyl]pyrido[3,4-b]pyrazin-5-amine hydrochloride], the figure is no more than 10 µM. On to `COc1cc(Nc2ncc(F)c(Nc3ccc4c(n3)N(COP(=O)(O)O)C(=O)C(C)(C)O4)n2)cc(OC)c1OC` [Example R788, fostamatinib disodium], for which, in data set [1] (patients with DLBCL and CLL/SLL), the therapeutic benefit entry is reported as “therapeutic benefit”. Also, in data set [1] (patients with relapsed or refractory B-Cell NHL), the tolerability result was “well-tolerated”.
